According to patent publication US10131652B2, “Pyrimidinyloxy benzene derivatives as herbicides” (E. I. DU PONT DE NEMOURS AND COMPANY, priority 2014, dated 2018):

Tests used:
Type in all cases: in vivo
[1] = test system: winter wheat (Triticum aestivum); assay: Test D pre-/postemergence plant response
Outline: (§1)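 0 = no effect, 100 = complete control: plants were scored this way by visual comparison with controls 13 to 15 days post-treatment. Application was preemergence to sown loam/sand pots or postemergence to 2–18 cm seedlings in peat-based mix.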

[2] = test system: blackgrass (Alopecurus myosuroides); assay: Test D pre-/postemergence plant response
Outline: as §1

[3] = test system: galium (catchweed bedstraw, Galium aparine); assay: Test D pre-/postemergence plant response
Outline: as §1

[4] = test system: johnsongrass (Sorghum halepense); assay: Test D pre-/postemergence plant response
Outline: as §1

[5] = test system: large (Lg) crabgrass (Digitaria sanguinalis); assay: Test D pre-/postemergence plant response
Outline: as §1

[6] = test system: velvetleaf (Abutilon theophrasti); assay: Test D pre-/postemergence plant response
Outline: as §1

[7] = test system: lambsquarters (Chenopodium album); assay: Test D pre-/postemergence plant response
Outline: as §1

[8] = test system: giant foxtail (Setaria faberii); assay: Test B pre-/postemergence plant response
Outline: (§2)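 Scoring used a 0–100 scale (100 = complete control) by visual comparison with untreated plants after approximately 10 days in the greenhouse. Compounds, in surfactant-containing non-phytotoxic solvent, were sprayed onto soil at planting or onto 2–10 cm seedlings.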

[9] = test system: wheat (Triticum aestivum); assay: Test B pre-/postemergence plant response
Outline: as §2

[10] = test system: barnyardgrass (Echinochloa crus-galli); assay: Test B pre-/postemergence plant response
Outline: as §2

corn (Zea mays) = assay: Test B pre-/postemergence plant response
Outline: as §2

[11] = test system: pigweed (Amaranthus retroflexus); assay: Test B pre-/postemergence plant response
Outline: as §2

[12] = test system: small-flower umbrella sedge (Cyperus difformis); assay: Test C flooded paddy test plant response; conditions: Flood, 250 g ai/ha; scale of 0 to 100 where 0 is no effect and 100 is complete control; 13 to 15 days
Outline: (§3)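 Greenhouse paddy assay, 13–15 days. Treatment into 3 cm floodwater over 2-leaf plants; visual 0–100 rating against controls.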

rice (Oryza sativa) = assay: Test C flooded paddy test plant response; conditions: Flood, 250 g ai/ha; scale of 0 to 100 where 0 is no effect and 100 is complete control; 13 to 15 days
Outline: as §3

[13] = test system: barnyardgrass (Echinochloa crus-galli); assay: Test C flooded paddy test plant response; conditions: Flood, 250 g ai/ha; scale of 0 to 100 where 0 is no effect and 100 is complete control; 13 to 15 days
Outline: as §3

[14] = test system: ducksalad (Heteranthera limosa); assay: Test C flooded paddy test plant response; conditions: Flood, 250 g ai/ha; scale of 0 to 100 where 0 is no effect and 100 is complete control; 13 to 15 days
Outline: as §3

[15] = Postemergence, 31 g ai/ha, scale 0 to 100 (0 no effect, 100 complete control)
[16] = Postemergence, 62 g ai/ha, scale 0 to 100, 0 no effect, 100 complete control
[17] = Postemergence, 125 g ai/ha, scale 0 to 100, 0 no effect, 100 complete control
[18] = Preemergence, 16 g ai/ha, scale 0 to 100 (0 no effect, 100 complete control)
[19] = Preemergence, 31 g ai/ha, scale 0 to 100 (0 no effect, 100 complete control)
[20] = Preemergence, 62 g ai/ha, scale 0 to 100 (0 no effect, 100 complete control)
[21] = Postemergence, 16 g ai/ha, scale 0 to 100 (0 no effect, 100 complete control)
[22] = 31 g ai/ha, Postemergence, 0 to 100 scale, 0 no effect, 100 complete control
[23] = 31 g ai/ha, Preemergence, 0 to 100 scale where 0 is no effect and 100 is complete control
[24] = 125 g ai/ha, postemergence, 0 to 100 scale, 0 no effect, 100 complete control
[25] = Preemergence, 125 g ai/ha, 0 to 100 scale (0 no effect, 100 complete control)
[26] = Preemergence, 8 g ai/ha, scale 0 to 100 (0 no effect, 100 complete control)
[27] = Postemergence, 31 g ai/ha, 0 to 100 scale (0 no effect, 100 complete control)

## FC(F)Oc1cccc(Oc2ncc(Cl)cn2)c1-c1cc(C(F)F)on1 [Compound 131]
[1]; [15]
  Wheat plant response rating: 0
[1]; [16]
  Plant response rating, Wheat: 0
[1]; [17]
  Plant response rating, Wheat: 0
[1]; Preemergence, 125 g ai/ha
  Plant response rating (scale 0 to 100), Wheat: 5
[1]; [18]
  Plant response rating, Wheat: 0
[1]; [19]
  Plant response rating, Wheat: 0
[1]; [20]
  Plant response rating, Wheat: 0
[2]; [21]
  Blackgrass plant response rating: 5
[2]; [15]
  Blackgrass plant response rating: 5
[2]; [16]
  Plant response rating, Blackgrass: 5
[2]; [17]
  Plant response rating, Blackgrass: 30
[2]; Preemergence, 125 g ai/ha
  Plant response rating (scale 0 to 100), Blackgrass: 95
[2]; [18]
  Plant response rating, Blackgrass: 5
[2]; [19]
  Plant response rating, Blackgrass: 80
[2]; [20]
  Plant response rating, Blackgrass: 90
[3]; [15]
  Galium plant response rating: 85
[3]; [16]
  Plant response rating, Galium: 95
[3]; [17]
  Plant response rating, Galium: 95
[3]; Preemergence, 125 g ai/ha
  Plant response rating (scale 0 to 100), Galium: 90
[3]; [18]
  Plant response rating, Galium: 95
[3]; [19]
  Plant response rating, Galium: 30
[3]; [20]
  Plant response rating, Galium: 90
[4]; [15]
  Johnsongrass plant response rating: 5
[4]; [16]
  Plant response rating, Johnsongrass: 25
[4]; [17]
  Plant response rating, Johnsongrass: 45
[4]; Preemergence, 125 g ai/ha
  Plant response rating (scale 0 to 100), Johnsongrass: 85
[4]; [18]
  Plant response rating, Johnsongrass: 0
[4]; [19]
  Plant response rating, Johnsongrass: 30
[4]; [20]
  Plant response rating, Johnsongrass: 80
[5]; [21]
  Crabgrass, Large plant response rating: 5
[5]; [15]
  Crabgrass, Large plant response rating: 5
[5]; [16]
  Plant response rating, Crabgrass, Large: 10
[5]; [17]
  Plant response rating, Crabgrass, Large: 20
[5]; Preemergence, 125 g ai/ha
  Plant response rating (scale 0 to 100), Crabgrass, Large: 100
[5]; [18]
  Plant response rating, Crabgrass, Large: 98
[5]; [19]
  Plant response rating, Crabgrass, Large: 100
[5]; [20]
  Plant response rating, Crabgrass, Large: 100
[6]; [15]
  Velvetleaf plant response rating: 65
[6]; [16]
  Plant response rating, Velvetleaf: 80
[6]; [17]
  Plant response rating, Velvetleaf: 85
[6]; Preemergence, 125 g ai/ha
  Plant response rating (scale 0 to 100), Velvetleaf: 98
[6]; [18]
  Plant response rating, Velvetleaf: 20
[6]; [19]
  Plant response rating, Velvetleaf: 65
[6]; [20]
  Plant response rating, Velvetleaf: 80
[7]; [15]
  Lambsquarters plant response rating: 98
[7]; [16]
  Plant response rating, Lambsquarters: 98
[7]; [17]
  Plant response rating, Lambsquarters: 100
[7]; Preemergence, 125 g ai/ha
  Plant response rating (scale 0 to 100), Lambsquarters: 98
[7]; [18]
  Plant response rating, Lambsquarters: 75
[7]; [19]
  Plant response rating, Lambsquarters: 80
[7]; [20]
  Plant response rating, Lambsquarters: 85
[8]; [22]
  Plant response rating, Foxtail, Giant: 50
[8]; [23]
  Plant response rating, Foxtail, Giant: 100
[8]; [24]
  Plant response rating, Foxtail, Giant: 90
[8]; [25]
  Foxtail, Giant plant response rating: 100
[9]; [24]
  Plant response rating, Wheat: 30
[10]; [22]
  Plant response rating, Barnyardgrass: 50
[10]; [23]
  Plant response rating, Barnyardgrass: 80
[10]; [24]
  Plant response rating, Barnyardgrass: 90
[10]; [25]
  Barnyardgrass plant response rating: 100
Corn (Zea mays); [22]
  Plant response rating, Corn: 20
Corn (Zea mays); [24]
  Plant response rating, Corn: 40
[11]; [23]
  Plant response rating, Pigweed: 100
[11]; [24]
  Plant response rating, Pigweed: 100
[11]; [25]
  Pigweed plant response rating: 100
[12]
  Sedge, Umbrella plant response rating: 95
Rice (Oryza sativa)
  Rice plant response rating: 60
[13]
  Barnyardgrass plant response rating: 75
[14]
  Ducksalad plant response rating: 95

## FC(F)(Cl)c1cc(-c2ccccc2Oc2ncc(Cl)cn2)no1 [Compound 143]
[1]; [15]
  Wheat plant response rating: 5
[1]; [16]
  Plant response rating, Wheat: 5
[1]; [17]
  Plant response rating, Wheat: 5
[1]; [26]
  Plant response rating, Wheat: 0
[1]; [18]
  Plant response rating, Wheat: 0
[1]; [19]
  Plant response rating, Wheat: 0
[1]; [20]
  Plant response rating, Wheat: 0
[2]; [21]
  Blackgrass plant response rating: 10
[2]; [15]
  Blackgrass plant response rating: 10
[2]; [16]
  Plant response rating, Blackgrass: 20
[2]; [17]
  Plant response rating, Blackgrass: 30
[2]; [26]
  Plant response rating, Blackgrass: 0
[2]; [18]
  Plant response rating, Blackgrass: 10
[2]; [19]
  Plant response rating, Blackgrass: 15
[2]; [20]
  Plant response rating, Blackgrass: 90
[3]; [15]
  Galium plant response rating: 70
[3]; [16]
  Plant response rating, Galium: 70
[3]; [17]
  Plant response rating, Galium: 100
[3]; [26]
  Plant response rating, Galium: 10
[3]; [18]
  Plant response rating, Galium: 10
[3]; [19]
  Plant response rating, Galium: 80
[3]; [20]
  Plant response rating, Galium: 80
[4]; [15]
  Johnsongrass plant response rating: 5
[4]; [16]
  Plant response rating, Johnsongrass: 30
[4]; [17]
  Plant response rating, Johnsongrass: 30
[4]; [26]
  Plant response rating, Johnsongrass: 35
[4]; [18]
  Plant response rating, Johnsongrass: 15
[4]; [19]
  Plant response rating, Johnsongrass: 60
[4]; [20]
  Plant response rating, Johnsongrass: 80
[5]; [21]
  Crabgrass, Large plant response rating: 10
[5]; [15]
  Crabgrass, Large plant response rating: 10
[5]; [16]
  Plant response rating, Crabgrass, Large: 15
[5]; [17]
  Plant response rating, Crabgrass, Large: 35
[5]; [26]
  Plant response rating, Crabgrass, Large: 60
[5]; [18]
  Plant response rating, Crabgrass, Large: 98
[5]; [19]
  Plant response rating, Crabgrass, Large: 100
[5]; [20]
  Plant response rating, Crabgrass, Large: 100
[6]; [15]
  Velvetleaf plant response rating: 30
[6]; [16]
  Plant response rating, Velvetleaf: 50
[6]; [17]
  Plant response rating, Velvetleaf: 65
[6]; [26]
  Plant response rating, Velvetleaf: 35
[6]; [18]
  Plant response rating, Velvetleaf: 30
[6]; [19]
  Plant response rating, Velvetleaf: 75
[6]; [20]
  Plant response rating, Velvetleaf: 85
[7]; [15]
  Lambsquarters plant response rating: 80
[7]; [16]
  Plant response rating, Lambsquarters: 98
[7]; [17]
  Plant response rating, Lambsquarters: 100
[7]; [26]
  Plant response rating, Lambsquarters: 25
[7]; [18]
  Plant response rating, Lambsquarters: 70
[7]; [19]
  Plant response rating, Lambsquarters: 85
[7]; [20]
  Plant response rating, Lambsquarters: 85
[8]; [23]
  Plant response rating, Foxtail, Giant: 70
[8]; [24]
  Plant response rating, Foxtail, Giant: 80
[8]; [27]
  Plant response rating, Foxtail, Giant: 10
[8]; [25]
  Foxtail, Giant plant response rating: 100
[9]; [24]
  Plant response rating, Wheat: 30
[9]; [27]
  Plant response rating, Wheat: 20
[10]; [23]
  Plant response rating, Barnyardgrass: 20
[10]; [24]
  Plant response rating, Barnyardgrass: 90
[10]; [27]
  Plant response rating, Barnyardgrass: 10
[10]; [25]
  Barnyardgrass plant response rating: 90
Corn (Zea mays); [24]
  Plant response rating, Corn: 30
Corn (Zea mays); [27]
  Plant response rating, Corn: 40
[11]; [23]
  Plant response rating, Pigweed: 90
[11]; [24]
  Plant response rating, Pigweed: 100
[11]; [27]
  Plant response rating, Pigweed: 90
[11]; [25]
  Pigweed plant response rating: 100
[12]
  Sedge, Umbrella plant response rating: 100
Rice (Oryza sativa)
  Rice plant response rating: 35
[13]
  Barnyardgrass plant response rating: 30
[14]
  Ducksalad plant response rating: 85
